The record followed here is patent publication US10912814B2, “Combination formulation of three antiviral compounds” (priority 2016, dated 2021).

The term bioavailability denotes dose-corrected exposure relative to a reference, in per cent. In general, solubility refers to the dissolved amount per volume that the medium holds.

Molecules are shown by their SMILES. Where two headings read alike, the source gives them in different places.

Series [1] can be described thus: Velpatasvir single and multiple oral dose pharmacokinetics. It is filed as in vivo, human. Particulars: for concentration at 24 h: human, plasma, oral, 5 mg, mean. The method, then:
Following single and multiple oral doses of velpatasvir, maximum plasma concentrations occurred between 1.50 and 3.25 hours (median tmax).

Series [2] is described as follows: Photostability (light exposure, ICH Q1B). It is filed as physicochemical. The method, then: In some embodiments, and the Examples presented herein, the tablet formulation includes sofosbuvir having Form 6 and, optionally, a trace amount of Form 7.
Tablet cores and film-coated tablets were evaluated per ICH Q1B guidelines with a total of illumination of more than 1.2 million-lux hours and a total irradiance of more than 200 W·hr/m^2.

Series [3] can be described thus: Storage stability: appearance, assay/label strength (LS), total impurities/degradation products. The settings on record: for physical and chemical stability: open container, 1 month at 40° C./75% RH. The series is classed as physicochemical. Here is the method: In some embodiments, the film-coated tablets were packaged in 75 and 100 mL white HDPE bottles (Lots A and B, respectively, as described in Tables 11A, 11B) with 1 g silica gel desiccant canisters and a polyester fiber coil. The 75 and 100 mL HDPE bottles contained fourteen and twenty eight tablets, respectively. Each HDPE bottle was capped using a white, continuous thread, child-resistant polypropylene screw cap with an […], aluminum-faced line. The packaged tablets (14 and 28 counts) were evaluated for stability at 40° C./75% RH and 25° C./60% RH. Additionally, the 14-count bottles (without cap) were evaluated for stability under open conditions at 40° C./75% RH.
For each of the impact studies, the sofosbuvir/velpatasvir SSD/voxilaprevir SSD tablets were packaged in a designated commercial packaging configuration (28-count, 100 mL HPDE bottle, coil, 1 g desiccant), and stored for 12 weeks at 25° C./60% RH and 40° C./75% RH. Tablets were also packaged in open containers (28-count, 100 mL HPDE bottle without cap) and stored for 4 weeks at 40° C./75% RH and for 1 week at 50° C./92% RH.
The sofosbuvir/velpatasvir SSD/voxilaprevir SSD tablets were packaged in the designated commercial packaging configuration (28-count, 100 mL HPDE bottle, coil, 1 g desiccant), and stored for 6 months at 25° C./60% RH and 40° C./75% RH.

Series [4] is described as follows: Tablet dissolution as a function of medium pH and composition (Apparatus II, 75 rpm, 900 mL, 37° C.). It is filed as physicochemical. The settings on record: Formulation G tablets.
A short description of series [5]: BCS classification. It is filed as physicochemical.
The nature of series [6]: Tablet dissolution in 50 mM sodium acetate buffer pH 5.0 with 2.0% w/v Polysorbate 80 and 0.001% w/v BHT, 75 rpm, 900 mL, 37° C., USP Type II. The settings on record: for dissolution at 30 minutes: after 4 weeks open at 40° C./75% RH. The series is classed as physicochemical.
Series [7] can be described thus: Oral bioavailability of crystalline voxilaprevir forms in a dog model. The settings on record: in vivo, read-out: oral bioavailability, less than that of crystalline Form VI. The method, then:
(§1) As described previously, Form VIII of voxilaprevir is characterized by an X-ray powder diffractogram comprising the following peaks (±0.2°): at 7.8, 8.2, and 20.2°2θ, as determined on a diffractometer using Cu-Kα radiation.

A short description of series [8]: Solubility (aqueous, spray-drying solvents). It is filed as physicochemical.
Source text: (§2) In some embodiments, and the Examples presented herein, the tablet formulation includes sofosbuvir having Form 6 and, optionally, a trace amount of Form 7. […] Form 6 of sofosbuvir is the thermodynamically stable form and remains physically stable when suspended in water. Form 7 of Sofosbuvir, while physically stable in water for short periods of time, can be converted to Form 6 with prolonged stirring.
as §1
The selection of a suitable solvent for the spray drying process was based on (1) the solubility of voxilaprevir EAS, Form II and copovidone in the solvent, (2) the chemical stability of voxilaprevir EAS, Form II in the presence of the solvent, and (3) the impact of the solvent on feed solution properties and particle properties of the resulting solid dispersion. Acetone and dichloromethane were evaluated as solvents for the feed solution because of their low boiling points and the high solubility of voxilaprevir EAS, Form II (>300 mg/mL) in these solvents.

A short description of series [9]: Hygroscopicity. It is filed as physicochemical.
Source text: as §2
Voxilaprevir SSD is hygroscopic, with a reversible weight gain of 11% when cycled between 0% and 90% RH at 25° C.

`COC[C@H]1C[C@@H](c2ncc(-c3ccc4c(c3)COc3cc5c(ccc6nc([C@@H]7CC[C@H](C)N7C(=O)[C@@H](NC(=O)OC)C(C)C)[nH]c65)cc3-4)[nH]2)N(C(=O)[C@H](NC(=O)OC)c2ccccc2)C1` [Velpatasvir, methyl {(2S)-1-[(2S,5S)-2-(9-{2-[(2S,4S)-1-{(2R)-2-[(methoxycarbonyl)amino]-2-phenylacetyl}-4-(methoxymethyl)pyrrolidin-2-yl]-1H-imidazol-5-yl}-1,11-dihydroisochromeno[4′,3′:6,7]naphtho[1,2-d]imidazol-2-yl)-5-methylpyrrolidin-1-yl]-3-methyl-1-oxobutan-2-yl}carbamate]: in series [1] (dose range of 5 to 450 mg), the “dose linearity of PK” value is “nonlinear PK”. Moreover, the concentration at 24 h in series [1] (multiple dose 5 mg, read-out: Ctau) is 2.2 ng/mL; in series [1] (single dose 5 mg, read-out: Clast) it was 1.4 ng/mL. The “level of degradation products” value in [2] (tablets film-coated to weight gains of 2.1 to 5.4%, ICH Q1B) stood at 0.4%. Moreover, the “loss after exposure to light” value in series [2] (uncoated tablet cores (Formulation G), ICH Q1B) is listed as “up to 0.3%”. Further, the total impurities/degradation products in [3] (packaged Formulation G tablets (Tables 11A, 11B), 40° C./75% RH and 25° C./60% RH for 6 months) was 0.0%; in series [3] (tablet Lots A-D from sub-potent/super-potent VEL SSD and VOX SSD, all conditions), 0.0%; in [3] (tablets from SSDs made with high-peroxide copovidone (544 ppm VEL SSD, 655 ppm VOX SSD)), 0.0%; in [3] (tablets from VEL SSD with 6.0% residual ethanol and VOX SSD with 2.1% residual acetone, all conditions), 0.0%; in [3] (tablets from VEL SSD with 7.0% and VOX SSD with 3.2% water content, all conditions), 0.0%. For the same compound, in series [4], the “dissolution at 60 minutes in pH 4.0 and 5.0 containing 2.0% w/v polysorbate 80” value is on record as “complete dissolution”. The “dissolution in pH 2.0, 4.5 and 6.8 buffers, FaSSIF and FeSSIF” value in series [4] is listed as “Incomplete dissolution”. Besides, in [5], the “aqueous solubility, pH dependence” value is listed as “pH-dependent solubility”. Moreover, the “dissolution at 30 minutes” value was determined as 86% in series [6] (SSD potency tablets Lot A) and 91% in series [6] (SSD potency tablets Lot B). In addition, the “release at 30 minutes” value in series [6] (tablets containing neat amorphous velpatasvir free base (physical mixture with copovidone)) came out at 62%; in [6] (tablets containing velpatasvir SSD), 91%.

For `CC[C@@H]1[C@@H]2CN(C(=O)[C@H](C(C)(C)C)NC(=O)O[C@@H]3C[C@H]3CCCCC(F)(F)c3nc4ccc(OC)cc4nc3O2)[C@@H]1C(=O)N[C@]1(C(=O)NS(=O)(=O)C2(C)CC2)C[C@H]1C(F)F` [crystalline Form VIII], the bioavailability in series [7] was approximately 50%.

Consider `CC(C)OC(=O)[C@@H](C)N[P@](=O)(OC[C@H]1O[C@@H](n2ccc(=O)[nH]c2=O)[C@](C)(F)[C@@H]1O)Oc1ccccc1` [sofosbuvir Form 6], for which the solubility in [8] (water, 37° C., read-out: aqueous solubility) was not below 2 mg/mL. The hygroscopicity entry in [9] is given as “non-hygroscopic”. For the same compound, the photosensitivity entry in [2] is on record as “not photosensitive”. Also, the “physical and chemical stability” value in series [3] was “physically and chemically stable”.

Consider `CC(C)OC(=O)[C@@H](C)N[P@](=O)(OC[C@H]1O[C@@H](n2ccc(=O)[nH]c2=O)[C@](C)(F)[C@@H]1O)Oc1ccccc1` [sofosbuvir Form 7], for which the hygroscopicity result in series [9] is on record as “non-hygroscopic”. Besides, the photosensitivity result in series [2] was “not photosensitive”. Besides, the “physical and chemical stability” value in [3] is “physically and chemically stable”.

In the case of `CC[C@@H]1[C@@H]2CN(C(=O)[C@H](C(C)(C)C)NC(=O)O[C@@H]3C[C@H]3CCCCC(F)(F)c3nc4ccc(OC)cc4nc3O2)[C@@H]1C(=O)N[C@]1(C(=O)NS(=O)(=O)C2(C)CC2)C[C@H]1C(F)F` [voxilaprevir EAS, Form II], the solubility in [8] (acetone and dichloromethane, organic solvent or mixture, read-out: solubility in acetone and dichloromethane) is more than 300 mg/mL.
